# Measurements published in patent publication USRE39616E1, “Aminoindan derivatives” (priority 1996, dated 2007).
# Structures can show the parent of a compound that is named as a salt. Where two headings read alike, the source gives them in different places.
# Tests used:
# [1] = target: T1, MAO-A (Mus musculus, UniProt Q64133); assay: Inhibition of MAO activity ex vivo (brain); format: in vivo, mice; conditions: mice, brain tissue
# T1 construct: from tissue; host or cells: mouse brain
# T1 sequence (Q64133 1-526): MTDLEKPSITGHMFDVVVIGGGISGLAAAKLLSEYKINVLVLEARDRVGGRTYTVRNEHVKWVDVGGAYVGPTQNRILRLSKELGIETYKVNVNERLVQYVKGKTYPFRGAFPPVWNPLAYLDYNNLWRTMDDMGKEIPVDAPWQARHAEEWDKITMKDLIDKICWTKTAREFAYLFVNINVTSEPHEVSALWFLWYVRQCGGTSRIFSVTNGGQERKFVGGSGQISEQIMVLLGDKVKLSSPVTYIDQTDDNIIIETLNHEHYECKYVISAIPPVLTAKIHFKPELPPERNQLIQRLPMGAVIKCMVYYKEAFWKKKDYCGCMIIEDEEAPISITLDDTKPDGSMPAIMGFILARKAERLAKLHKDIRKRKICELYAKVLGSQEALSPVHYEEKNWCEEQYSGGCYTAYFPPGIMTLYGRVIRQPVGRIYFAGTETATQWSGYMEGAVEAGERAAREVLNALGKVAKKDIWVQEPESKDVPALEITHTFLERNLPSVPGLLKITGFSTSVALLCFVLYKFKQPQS
# Experimental: (§1) Substrate concentrations used were 50 μM (PEA) and 1 mM (5-HT).
# (§2) Male Sabra mice, weighing 45-50 g were injected with test compound solutions (prepared in 0.9% saline). Each dose was administered to two or three mice. The mice were sacrificed two hours after drug administration or at a time corresponding to the peak AChE inhibition time (see Table 11). The brain and liver were rapidly dissected and stored in appropriate vials on ice. The tissues were weighed, diluted to ½ in sucrose 0.3M and stored at −20° C. before performance of the MAO assay described above. The results given in Table 11 relate to measurements made on brain tissue only.
# [2] = target: T2, MAO-B (Mus musculus, UniProt Q8BW75); assay: Inhibition of MAO activity ex vivo (brain); format: in vivo, mice; conditions: mice, brain tissue
# T2 construct: from tissue; host or cells: mouse brain
# T2 sequence (Q8BW75 1-520): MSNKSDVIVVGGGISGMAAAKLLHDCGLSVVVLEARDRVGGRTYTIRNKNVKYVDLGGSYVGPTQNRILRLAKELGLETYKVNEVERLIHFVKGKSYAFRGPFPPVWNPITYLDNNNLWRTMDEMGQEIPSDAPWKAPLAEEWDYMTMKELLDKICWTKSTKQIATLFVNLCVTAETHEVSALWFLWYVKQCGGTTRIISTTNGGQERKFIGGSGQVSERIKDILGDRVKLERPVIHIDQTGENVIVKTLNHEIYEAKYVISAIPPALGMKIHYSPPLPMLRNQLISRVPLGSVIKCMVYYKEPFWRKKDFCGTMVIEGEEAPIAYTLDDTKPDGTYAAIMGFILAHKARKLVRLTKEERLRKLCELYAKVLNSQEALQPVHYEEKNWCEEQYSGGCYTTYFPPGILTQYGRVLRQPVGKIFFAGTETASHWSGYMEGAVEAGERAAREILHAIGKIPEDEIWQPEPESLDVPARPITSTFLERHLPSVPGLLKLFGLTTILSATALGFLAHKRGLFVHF
# Experimental: as §1, §2
# [3] = target: T3, Human erythrocyte acetylcholinesterase (Homo sapiens, UniProt P22303); assay: biochemical; format: biochemical
# T3 construct: Human erythrocyte acetylcholinesterase (type XIII, Sigma Israel); purchased Sigma Israel type XIII; host or cells: human erythrocytes
# T3 sequence (P22303 32-617 isoform P22303-2 limits assumed): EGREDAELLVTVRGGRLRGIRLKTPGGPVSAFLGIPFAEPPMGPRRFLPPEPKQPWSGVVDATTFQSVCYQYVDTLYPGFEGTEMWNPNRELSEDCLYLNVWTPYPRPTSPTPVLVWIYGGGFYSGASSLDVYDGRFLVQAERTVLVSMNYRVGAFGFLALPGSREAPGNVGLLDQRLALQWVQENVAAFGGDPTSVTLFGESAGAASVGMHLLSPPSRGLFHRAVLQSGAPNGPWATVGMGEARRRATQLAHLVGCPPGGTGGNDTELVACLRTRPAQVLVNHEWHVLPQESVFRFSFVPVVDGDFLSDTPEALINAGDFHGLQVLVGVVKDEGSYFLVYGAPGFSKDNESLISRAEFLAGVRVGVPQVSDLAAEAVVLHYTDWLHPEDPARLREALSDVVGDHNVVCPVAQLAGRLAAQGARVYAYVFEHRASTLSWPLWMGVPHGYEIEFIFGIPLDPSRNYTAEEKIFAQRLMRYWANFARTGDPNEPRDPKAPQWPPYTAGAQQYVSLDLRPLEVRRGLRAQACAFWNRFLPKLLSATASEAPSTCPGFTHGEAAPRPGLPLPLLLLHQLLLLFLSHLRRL
# Experimental: Human erythrocyte acetylcholinesterase (type XIII, Sigma Israel), was prepared in a stock solution of 1 U/ml, containing Triton (1%) and bovine serum albumin (0.05%) in phosphate buffer (pH 8). The enzyme (0.05U) was incubated with 3-5 different concentrations of test compound (in triplicate) for periods of from 15 to 60 minutes at 37° C. […] The percentage inhibition of AChE by each concentration of drug is calculated by comparison with that of enzyme in the absence of drug.
# [4] = target: T4, MAO-A (Rattus norvegicus, UniProt P21396); assay: Inhibition of MAO activity in vitro, 5-HT as substrate; format: biochemical; set-up: The MAO enzyme source was a homogenate of rat brain in 0.3M sucrose; from tissue; host or cells: rat brain homogenate, 600 g supernatant; conditions: 5-HT substrate
# T4 sequence (P21396 1-526): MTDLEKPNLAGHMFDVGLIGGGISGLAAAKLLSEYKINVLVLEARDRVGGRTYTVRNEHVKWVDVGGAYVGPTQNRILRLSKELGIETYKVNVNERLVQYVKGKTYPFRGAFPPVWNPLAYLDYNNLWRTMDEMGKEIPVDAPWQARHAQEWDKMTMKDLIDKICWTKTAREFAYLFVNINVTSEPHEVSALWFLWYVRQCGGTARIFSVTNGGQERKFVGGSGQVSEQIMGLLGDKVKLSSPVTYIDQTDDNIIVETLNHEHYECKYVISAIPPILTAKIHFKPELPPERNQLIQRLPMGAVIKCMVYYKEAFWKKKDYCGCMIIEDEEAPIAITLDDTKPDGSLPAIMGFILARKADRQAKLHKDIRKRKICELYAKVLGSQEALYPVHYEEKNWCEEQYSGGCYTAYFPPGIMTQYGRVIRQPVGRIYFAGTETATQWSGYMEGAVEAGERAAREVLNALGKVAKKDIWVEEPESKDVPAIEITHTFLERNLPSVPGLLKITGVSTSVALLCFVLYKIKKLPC
# Experimental: as §1
# [5] = target: T5, whole brain AChE (Mus musculus, UniProt P21836); conditions: for AChE Inhibition Ex vivo ED50 (AC): mice, whole brain, at peak of activity; for AChE Inhibition Time to peak activity t / AChE Inhibition Time to return to 50% of peak t: mouse, in vivo
# T5 sequence (P21836 32-614): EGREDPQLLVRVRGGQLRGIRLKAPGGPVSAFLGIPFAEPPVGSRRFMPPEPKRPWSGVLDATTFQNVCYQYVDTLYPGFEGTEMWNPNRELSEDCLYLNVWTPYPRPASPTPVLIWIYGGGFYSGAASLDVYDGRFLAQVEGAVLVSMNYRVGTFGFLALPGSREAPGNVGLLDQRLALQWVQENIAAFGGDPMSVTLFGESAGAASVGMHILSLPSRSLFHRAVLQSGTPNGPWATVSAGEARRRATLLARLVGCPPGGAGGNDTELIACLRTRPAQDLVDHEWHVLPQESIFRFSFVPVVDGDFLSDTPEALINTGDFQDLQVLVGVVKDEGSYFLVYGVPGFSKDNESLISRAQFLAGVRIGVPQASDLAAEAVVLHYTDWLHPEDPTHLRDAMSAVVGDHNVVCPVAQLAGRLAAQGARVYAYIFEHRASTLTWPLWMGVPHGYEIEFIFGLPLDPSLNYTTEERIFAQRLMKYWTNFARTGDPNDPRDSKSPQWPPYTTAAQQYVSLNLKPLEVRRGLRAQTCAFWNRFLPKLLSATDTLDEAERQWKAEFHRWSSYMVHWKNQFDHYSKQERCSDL
# Experimental: Test drugs or saline were administered sub-cutaneously to male mice (Sabra strain, 28-35 g). […] The mice were sacrificed 15, 30, 50, 70, 90, 120 or 180 minutes after drug administration, the brains rapidly removed (minus cerebellum), weighed and homogenized in 0.1 M phosphate buffer, pH 8.0, containing Triton (1 mg/100 g tissue) and centrifuged to remove cell debris. Aliquots (25 μl) of the supernatant were then incubated with acetylthiocholine and DTNB. AChE activity was measured as described above. The % inhibition of whole brain AChE by each dose of drug was calculated by comparison with enzyme activity from 3 saline treated control mice run at the same time.
# [6] = tested on: mice; conditions: mice, within 6 hours after administration
# Experimental: Therapeutic Ratio was calculated as LD50 divided by ED50 of ex vivo acetylcholine esterase inhibition.
# [7] = tested on: mice, hypobaric hypoxic model; assay: animal or person; format: in vivo; conditions: for response vs control in vivo at 0.2 mg/kg: 0.2 mg/kg sc
# Source text: A 12 liter desiccator (desiccator A) and a 2.5 liter desiccator (desiccator B) were separately connected to a vacuum pump. Desiccator B was disconnected and allowed to equilibrate with room air whilst desiccator A was evacuated to a pressure of 100 mmHg. Four male ICR albino mice (22-28 g) were placed in desiccator B. Desiccator B was then closed to room air and connected to desiccator A. The pressure inside desiccator B was monitored using a mercury manometer and at the point were the pressure in desiccator B reached 200 mmpg (usually within 14 seconds), the two desiccators were disconnected from the vacuum pump and the pump switched off. The survival time from the moment of induction of hypoxia to the time of cessation of respiration was recorded for each mouse for a maximum of 15 minutes after which time room air was reintroduced to desiccator B. Survivors were monitored for signs of lethargy or vitality.
# Effect of drug treatment was assessed as the percent of the survival time of the drug treated group with respect to the saline injected or vehicle injected control group. […] The effect of each dose of test drug was determined in duplicate i.e. two groups of 4 mice.
# Positive reference drugs were sodium pentobarbital at a dose of 40 mg/kg, and diazepam 10 mg/kg given 0.5 h prior to hypoxia, physostigmine 0.2 and 0.4 mg/kg and neostigmine 0.2 mg/kg given sc 30 min before hypoxia. Methyl atropine 1 mg/kg was given sc. 10 min. before physostigmine.
# Test drugs were dissolved in 0.9% saline, and injected sc. in the nip of the neck at a dose in accordance with body weight, 60-90 min. before hypoxia. The volume of injection was 0.2-0.3 mL per mouse (10 mL/kg). The initial dose was about one third of the reported LD50 for acetylcholine esterase inhibition. If no protection could be obtained, the dose was further increased to the nearest non-toxic dose. In case of protection, the dose was further reduced in an attempt to locate the “protective” dose range.
# [8] = read-out: AChE Inhibition In vitro IC50
# [9] = human erythrocyte AChE, at time of peak activity, read-out: AChE Inhibition In vitro IC50
# [10] = Mus musculus, 30 min before hypoxia, read-out: Protection (survival time)
structure (smiles),measurement,setting,value
"C#CCNC1CCc2ccc(OC(=O)N(C)C)cc21 (single isomer, unassigned) [Compound 54]",MAO-A Inhibition Ex vivo ED50,[1],>100 µmol/kg
same,MAO-B Inhibition Ex vivo ED50,[2],>100 µmol/kg
"C#CCNC1CCc2ccc(OC(=O)N(C)C)cc21 (single isomer, unassigned) [Compound 55]",MAO-A Inhibition Ex vivo ED50,[1],>100 µmol/kg
same,MAO-B Inhibition Ex vivo ED50,[2],>100 µmol/kg
CCCN(C)C(=O)Oc1ccc2c(c1)C(N)CC2 (stereo not drawn) [Compound 2],IC50,[3]; [8],7.3 µM
same,IC50,"[4]; rat brain homogenate, read-out: MAO-A Inhibition In vitro IC50",32 µM
"CCN(C)C(=O)Oc1ccc2c(c1)C(N)CC2 (stereo not drawn) [Compound 3, 6-(N-Me,N-Et Carbamyloxy) aminoindan HCl]",AChE Inhibition Ex vivo ED50 (AC),[5],46.3 µmol/kg
same,AChE Inhibition Time to peak activity t,[5],60 to 90 min
same,AChE Inhibition Time to return to 50% of peak t,[5],>180 min
same,Acute Toxicity LD50 (LD),[6],950 µmol/kg
same,IC50,"[4]; MAO-A Inhibition In vitro IC50, rat brain homogenate",12.6 µM
CCN(C)C(=O)Oc1cccc2c1C(N)CC2 (stereo not drawn) [Compound 5],MAO-A Inhibition Ex vivo ED50,[1],>>277 μmoles/kg
same,MAO-B Inhibition Ex vivo ED50,[2],>>277 μmoles/kg
same,AChE Inhibition Ex vivo ED50 (AC),[5],85.0 µmol/kg
same,AChE Inhibition Time to peak activity t,[5],60 min
same,AChE Inhibition Time to return to 50% of peak t,[5],>120 min
same,Acute Toxicity LD50 (LD),[6],840 µmol/kg
CNC1CCc2cccc(OC(=O)N(C)C)c21 (stereo not drawn) [Compound 9],AChE Inhibition Ex vivo ED50 (AC),[5],19 µmol/kg
same,AChE Inhibition Time to peak activity t,[5],15 min
same,Acute Toxicity LD50 (LD),[6],93 µmol/kg
CN(C)C(=O)Oc1ccc2c(c1)C(N(C)C)CC2 (stereo not drawn) [Compound 12],response vs control in vivo at 7 mg/kg,"[7]; Mus musculus, sc, read-out: Protection (survival time), 7 mg/kg sc, 60 min before hypoxia",248 ± 97%
same,response vs control in vivo at 10 mg/kg,"[7]; Mus musculus, sc, read-out: Protection (survival time), 10 mg/kg sc, 60 min before hypoxia",386 ± 238%
same,response vs control in vivo at 15 mg/kg,"[7]; Mus musculus, sc, read-out: Protection (survival time), 15 mg/kg sc, 60 min before hypoxia",649 ± 221%
same,response vs control in vivo at 20 mg/kg,"[7]; Mus musculus, sc, read-out: Protection (survival time), 20 mg/kg sc, 60 min before hypoxia",725 ± 128%
same,AChE Inhibition Ex vivo ED50 (AC),[5],8.0 µmol/kg
same,AChE Inhibition Time to peak activity t,[5],15 min
same,Acute Toxicity LD50 (LD),[6],<20 µmol/kg
CN(C(=O)Oc1ccc2c(c1)C(N)CC2)C1CCCCC1 (stereo not drawn) [Compound 17],IC50,[3]; [8],4 µM
C#CCNC1CCc2cccc(OC(=O)N(C)CCC)c21 (stereo not drawn) [Compound 28],IC50,[3]; [9],100 µM
C#CCN(C)C1CCc2ccc(OC(=O)N(C)CC)cc21 (stereo not drawn) [Compound 30],IC50,[3]; [8],1300 µM
C#CCNC1CCc2cccc(OC(=O)N(C)CC)c21 (stereo not drawn) [Compound 33],IC50,[3]; AChE Inhibition In vitro IC50,540 µM
same,MAO-A Inhibition Ex vivo ED50,[1],>>1200 μmoles/kg
same,MAO-B Inhibition Ex vivo ED50,[2],1000 µmol/kg
C#CCNC1CCc2ccc(OC(=O)NCC)cc21 (stereo not drawn) [Compound 56],IC50,[3]; [9],11.5 µM
same,AChE Inhibition Ex vivo ED50 (AC),[5],180 µmol/kg
C#CCNC1CCc2ccc(OC(=O)N(C)CC)cc21 (stereo not drawn) [Compound 60],IC50,[3]; AChE Inhibition In vitro IC50,42 µM
C#CCNC1CCc2ccc(OC(=O)N(CC)CCCC)cc21 (stereo not drawn) [Compound 83],IC50,[3]; [9],80 µM
C#CCNC1CCc2ccc(OC(=O)N(CC)C3CCCCC3)cc21 (stereo not drawn) [Compound 85],IC50,[3]; [9],17 µM
same,AChE Inhibition Ex vivo ED50 (AC),[5],>100 µmol/kg
C#CCNC1CCc2ccc(OC(=O)N(C)CCCC)cc21 (stereo not drawn) [Compound 86],IC50,[3]; [8],10.5 µM
C#CCNC1CCc2ccc(OC(=O)N(C)CCCC)cc21 (stereo not drawn) [Compound 87],IC50,[3]; [8],9.1 µM
CCCC(C)C1(CC)C(=O)N=C([O-])NC1=O.[Na+] (stereo not drawn) [Nembutal],Protection (survival time),"[7]; 40 mg/kg, 30 min before hypoxia",253 ± 200 % of control
"CN(C)C(=O)Oc1cccc([N+](C)(C)C)c1 [neostigmine, reference compound]",response vs control in vivo at 0.2 mg/kg,[7]; [10],141 ± 32%
"CNC(=O)Oc1ccc2c(c1)[C@]1(C)CCN(C)[C@@H]1N2C [physostigmine, reference compound]",response vs control in vivo at 0.2 mg/kg,[7]; [10],453 ± 222%
same,response vs control in vivo at 0.4 mg/kg,"[7]; Mus musculus, 0.4 mg/kg sc, 30 min before hypoxia, read-out: Protection (survival time)",552 ± 210%
